The values that follow come from BigSolDB 2.1.

Molecules are shown by their SMILES.

The solubility (mole fraction) is the moles of solute divided by all moles in the saturated solution.

For the compound `O=C1c2cccc(O)c2C(=O)c2c(O)cc(CO)cc21`, the solubility (mole fraction) reads like this: (in ethanol, 283.15 K) 2.21e-05; (in ethanol, 288.15 K) 2.58e-05; (in ethanol, 293.15 K) 3.15e-05; (in ethanol, 298.15 K) 3.83e-05; (in ethanol, 303.15 K) 4.45e-05; (in ethanol, 308.15 K) 5.2e-05. Besides, the solubility (mole fraction) was found to be 6.32e-05 (in ethanol, 313.15 K); 7.71e-05 (in ethanol, 318.15 K); 9e-05 (in ethanol, 323.15 K); 3.32e-07 (in water, 283.15 K); 4.51e-07 (in water, 288.15 K); 5.84e-07 (in water, 293.15 K). For the same compound, the solubility (mole fraction) reads like this: (in water, 298.15 K) 8.17e-07; (in water, 303.15 K) 1.15e-06; (in water, 308.15 K) 1.58e-06; (in water, 313.15 K) 2.1e-06; (in water, 318.15 K) 2.72e-06; (in water, 323.15 K) 3.9e-06.

In the case of `Cc1cc(O)c2c(c1)C(=O)c1cc(O)cc(O)c1C2=O`, the solubility (mole fraction) was determined as 8.37e-05 (in ethanol, 283.15 K); 9.39e-05 (in ethanol, 288.15 K); 0.000112 (in ethanol, 293.15 K); 0.000132 (in ethanol, 298.15 K); 0.00015 (in ethanol, 303.15 K); 0.00017 (in ethanol, 308.15 K). In addition, the solubility (mole fraction) reads like this: (in ethanol, 313.15 K) 0.000203; (in ethanol, 318.15 K) 0.000231; (in ethanol, 323.15 K) 0.000268; (in water, 283.15 K) 3.2e-08; (in water, 288.15 K) 4.6e-08; (in water, 293.15 K) 6e-08. The solubility (mole fraction) is, setting by setting: (in water, 298.15 K) 8.2e-08; (in water, 303.15 K) 1e-07; (in water, 308.15 K) 1.32e-07; (in water, 313.15 K) 1.79e-07; (in water, 318.15 K) 2.15e-07; (in water, 323.15 K) 2.79e-07.
